Patent publication US10047105B2, “Gyrase inhibitors” (Merck Sharp & Dohme Corp., priority 2009, dated 2018)
In brackets after ≈: the same amount, converted by molar mass.

Columns and labels:
Type in all cases: cell-based
[1] = test system: E. coli imp Benson BAS849; assay: microbe, parasite or virus in culture; conditions: Escherichia coli, read-out: Antibacterial Potency MIC
[2] = test system: S. aureus ATCC 13709 (SA + serum); assay: MIC, S. aureus + 20% mouse serum; conditions: Staphylococcus aureus, ATCC13709; S. aureus + serum (20% mouse serum); read-out: Antibacterial Potency MIC
[3] = test system: E. coli 8 ATCC 25922; assay: MIC, E. coli 8 (wt); conditions: for MIC: Escherichia coli, ATCC25922, E. coli (wt), read-out: Antibacterial Potency MIC; for MIC EC8: E. coli 8 (EC8)
[4] = test system: E. coli Δtolc BW25113 Δtolc; assay: microbe, parasite or virus in culture; conditions: Escherichia coli, BW25113, read-out: Antibacterial Potency MIC
[5] = test system: S. pneumoniae ATCC 51916; assay: MIC, S. pneumoniae; conditions: for MIC: Streptococcus pneumoniae, ATCC51916, S. pneumoniae, read-out: Antibacterial Potency MIC; for MIC Spn52: S. pneumoniae (Spn52), in µg/mL
[6] = test system: H. influenzae ATCC 49247; assay: MIC, H. influenzae; conditions: Haemophilus influenzae, ATCC49247, read-out: Antibacterial Potency MIC
[7] = test system: A. baumannii ATCC 19606; assay: MIC, A. baumannii; conditions: Acinetobacter baumannii, ATCC19606, read-out: Antibacterial Potency MIC
[8] = test system: E. coli ATCC 25922 (EC8 + serum); assay: MIC, E. coli + 20% mouse serum; conditions: Escherichia coli, ATCC25922; E. coli + serum (20% mouse serum); read-out: Antibacterial Potency MIC
[9] = test system: K. pneumoniae 11; assay: MIC, K. pneumoniae 11; conditions: Klebsiella pneumoniae, read-out: Antibacterial Potency MIC
[10] = test system: K. pneumoniae 101; assay: MIC, K. pneumoniae 101; conditions: Klebsiella pneumoniae, read-out: Antibacterial Potency MIC
[11] = test system: P. aeruginosa ATCC 15692; assay: MIC, P. aeruginosa (wt); conditions: Pseudomonas aeruginosa, ATCC15692, read-out: Antibacterial Potency MIC
[12] = test system: S. aureus ATCC 13709; assay: MIC, antibacterial potency, S. aureus; conditions: for MIC: Staphylococcus aureus, ATCC13709, S. aureus; for MIC, SA: S. aureus (SA), in µg/mL

In the case of CCc1[nH]c2nc(Sc3cnc4ccc[n+]([O-])c4c3)nc(N3CC[C@@H](N)C3)c2c1Cl [701,008], the MIC [1] is reported as 1 µg/mL (≈ 2.26 µM), the MIC [2] is reported as no more than 0.5 µg/mL and the MIC [3] is reported as 4 µg/mL (≈ 9.05 µM). For the same compound, the MIC [4] was no more than 0.5 µg/mL, the MIC [5] was 1 µg/mL (≈ 2.26 µM) and the MIC [6] was 2 µg/mL (≈ 4.53 µM). For the same compound, the MIC [7] was 8 µg/mL (≈ 18.1 µM), the MIC [8] was 2 µg/mL and the MIC [9] was 32 µg/mL (≈ 72.4 µM). It also gave an MIC [10] of no more than 0.5 µg/mL, an MIC [11] of 16 µg/mL (≈ 36.2 µM) and an MIC [12] of no more than 0.5 µg/mL.
For CCc1[nH]c2nc(Oc3cncnc3)nc(Oc3cc(N)cc(C#N)c3)c2c1Br [701,250], the MIC EC8 [3] was greater than 64 µg/mL, the “MIC Spn52” value [5] was “<=0.5” and the “MIC, SA” value [12] was “<=0.5”.
CCc1[nH]c2nc(Oc3cncnc3)nc(Oc3cccc(CNC)c3)c2c1Cl [701,251] was tested, and the MIC EC8 [3] was greater than 64 µg/mL, the “MIC Spn52” value [5] was 2 and the “MIC, SA” value [12] was 1.
In the case of CCc1[nH]c2nc(Oc3cnc4cccnc4c3)nc(Oc3cccc(C#N)c3)c2c1Br [701,252], the MIC EC8 [3] is reported as greater than 64 µg/mL, the “MIC Spn52” value [5] is reported as “<=0.5” and the “MIC, SA” value [12] is reported as “<=0.5”.
In the case of CCc1[nH]c2nc(Oc3cccc(C#N)c3)nc(Oc3cncnc3)c2c1Br [701,253], the MIC EC8 [3] is reported as greater than 64 µg/mL, the “MIC Spn52” value [5] is reported as 4 and the “MIC, SA” value [12] is reported as 1.
In the case of CCc1[nH]c2nc(Oc3cnc(C)nc3)nc(Oc3cnc(C)nc3)c2c1Br [701,254], the MIC EC8 [3] is reported as greater than 64 µg/mL, the “MIC Spn52” value [5] is reported as “<=0.5” and the “MIC, SA” value [12] is reported as “<=0.5”.
With CCc1[nH]c2nc(Oc3cncc(C#N)c3)nc(Oc3cnc(N)nc3)c2c1Br [701,255] the MIC EC8 [3] was greater than 64 µg/mL, the “MIC Spn52” value [5] was “<=0.5” and the “MIC, SA” value [12] was “<=0.5”.
In the case of CCc1[nH]c2nc(N3CCN(c4cc(C(=O)O)nc5ccc(Cl)cc45)CC3)ncc2c1Cl [701,260], the MIC EC8 [3] is reported as greater than 64 µg/mL, the “MIC Spn52” value [5] is reported as 64 and the “MIC, SA” value [12] is reported as 8.
For CCc1[nH]c2nc(Oc3cncc(C#N)c3)ncc2c1Cl [701,261], the MIC EC8 [3] was greater than 64 µg/mL, the “MIC Spn52” value [5] was 16 and the “MIC, SA” value [12] was 4.
CCc1[nH]c2nc(Sc3cnc4ccc[n+]([O-])c4c3)nc(N3CC(NS(C)(=O)=O)C3)c2c1Cl [701,263] was tested, and the MIC EC8 [3] was greater than 64 µg/mL, the “MIC Spn52” value [5] was 1 and the “MIC, SA” value [12] was “<=0.5”.
CCc1[nH]c2nc(Oc3cncnc3)nc(Oc3cc(O)cc(C#N)c3)c2c1Cl [701,264] was tested, and the MIC EC8 [3] was greater than 64 µg/mL, the “MIC Spn52” value [5] was “<=0.5” and the “MIC, SA” value [12] was “<=0.5”.
CCc1[nH]c2nc(Oc3cncc(C(N)=O)c3)ncc2c1Cl [701,265] was tested, and the MIC EC8 [3] was greater than 64 µg/mL, the “MIC Spn52” value [5] was 16 and the “MIC, SA” value [12] was 4.
For CCc1[nH]c2nc(Oc3ccc[n+]([O-])c3)nc(Oc3cccc(C#N)c3)c2c1Br [701,267], the MIC EC8 [3] was 32 µg/mL (≈ 70.8 µM), the “MIC Spn52” value [5] was “<=0.5” and the “MIC, SA” value [12] was “<=0.5”.
In the case of CCc1[nH]c2nc(Oc3cncc(C#N)c3)nc(Oc3cc(O)cc(C#N)c3)c2c1Br [701,268], the MIC EC8 [3] is reported as 4 µg/mL (≈ 8.38 µM), the “MIC Spn52” value [5] is reported as “<=0.5” and the “MIC, SA” value [12] is reported as “<=0.5”.
CCc1[nH]c2nc(Sc3cnc4ccc[n+]([O-])c4c3)nc(N3C[C@@H]4[C@@H](CN)[C@@H]4C3)c2c1Cl [701,269] was tested, and the MIC EC8 [3] was 8 µg/mL (≈ 17.1 µM), the “MIC Spn52” value [5] was “<=0.5” and the “MIC, SA” value [12] was “<=0.5”.
With CCc1[nH]c2nc(Sc3cnc4c(c3)c(=O)ncn4C)nc(N3CC4C(N)C4C3)c2c1Cl (stereo not drawn) [701,270] the MIC EC8 [3] was 32 µg/mL (≈ 68.2 µM), the “MIC Spn52” value [5] was 4 and the “MIC, SA” value [12] was “<=0.5”.
For CCc1[nH]c2nc(Oc3cncnc3)nc(Oc3cc(Cl)cc(N4CC(N)C4)c3)c2c1Br [701,273], the MIC EC8 [3] was 16 µg/mL (≈ 31 µM), the “MIC Spn52” value [5] was “<=0.5” and the “MIC, SA” value [12] was “<=0.5”.
For CCc1[nH]c2nc(Oc3cncc(C(N)=O)c3)nc(N3CC4C(N)C4C3)c2c1Cl (stereo not drawn) [701,278], the MIC EC8 [3] was greater than 64 µg/mL, the “MIC Spn52” value [5] was greater than 64 and the “MIC, SA” value [12] was greater than 64.
CCc1[nH]c2nc(Oc3ccc4nccnc4c3)nc(Oc3ccc(C#N)cc3Cl)c2c1Cl [701,286] was tested, and the MIC EC8 [3] was greater than 64 µg/mL, the “MIC Spn52” value [5] was greater than 64 and the “MIC, SA” value [12] was greater than 64.
With CCc1[nH]c2nc(Oc3ccc4nccnc4c3)nc(Oc3ccc(C#N)cc3Cl)c2c1Br [701,287] the MIC EC8 [3] was greater than 64 µg/mL, the “MIC Spn52” value [5] was greater than 64 and the “MIC, SA” value [12] was greater than 64.
In the case of CCc1[nH]c2nc(Oc3cnc(C)nc3)nc(Oc3cc(C#N)ccc3F)c2c1Br [701,288], the MIC EC8 [3] is reported as greater than 64 µg/mL, the “MIC Spn52” value [5] is reported as 1 and the “MIC, SA” value [12] is reported as “<=0.5”.
For CCc1[nH]c2nc(Oc3ccc4nccnc4c3)nc(OC3CCN(C(=O)OC(C)(C)C)CC3)c2c1Cl [701,289], the MIC EC8 [3] was greater than 64 µg/mL, the “MIC Spn52” value [5] was greater than 64 and the “MIC, SA” value [12] was 16.
For CCc1[nH]c2nc(Oc3ccc4nccnc4c3)nc(OC3CCNCC3)c2c1Cl [701,290], the MIC EC8 [3] was greater than 64 µg/mL, the “MIC Spn52” value [5] was 64 and the “MIC, SA” value [12] was greater than 64.
CCc1[nH]c2nc(Oc3cnc(C)nc3)nc(OC3CCNC3)c2c1Cl (stereo not drawn) [701,291] was tested, and the MIC EC8 [3] was 64 µg/mL (≈ 171 µM), the “MIC Spn52” value [5] was 16 and the “MIC, SA” value [12] was 32.
CCc1[nH]c2nc(Sc3cnc4c(c3)c(=O)ncn4C)nc(N3CC4C(N)C4C3)c2c1C (stereo not drawn) [701,292] was tested, and the MIC EC8 [3] was greater than 32 µg/mL, the “MIC Spn52” value [5] was greater than 32 and the “MIC, SA” value [12] was 32.
For CCc1[nH]c2nc(Oc3cncnc3)nc(Oc3ccc4ncnc(N5CC(N)C5)c4c3)c2c1Cl [701,296], the MIC EC8 [3] was greater than 64 µg/mL, the “MIC Spn52” value [5] was 32 and the “MIC, SA” value [12] was 8.
CCc1[nH]c2nc(Oc3cncnc3)nc(Oc3ccc4ncnc(N5CC(N)C5)c4c3)c2c1Br [701,297] was tested, and the MIC EC8 [3] was greater than 64 µg/mL, the “MIC Spn52” value [5] was 16 and the “MIC, SA” value [12] was 4.
With CCc1[nH]c2nc(Oc3cncc(C#N)c3)nc(Oc3ccc4ncnc(N5CC(N)C5)c4c3)c2c1Br [701,298] the MIC EC8 [3] was greater than 64 µg/mL, the “MIC Spn52” value [5] was 4 and the “MIC, SA” value [12] was 2.
CCc1[nH]c2nc(Oc3ccc4ncnc(N5CC(N)C5)c4c3)nc(Oc3cncc(C#N)c3)c2c1Br [701,299] was tested, and the MIC EC8 [3] was greater than 64 µg/mL, the “MIC Spn52” value [5] was 4 and the “MIC, SA” value [12] was 2.
With CCc1[nH]c2nc(Sc3cnc4ccc[n+]([O-])c4c3)nc(N3CC[C@@H](N)C3)c2c1Cl [701008-2] the MIC EC8 [3] was 4 µg/mL (≈ 9.05 µM), the “MIC Spn52” value [5] was 1 and the “MIC, SA” value [12] was “<=0.5”.
In the case of CCc1[nH]c2nc(Sc3cnc4ccc[n+]([O-])c4c3)nc(N3CC4C(N)C4C3)c2c1Cl (stereo not drawn) [701009-2], the MIC EC8 [3] is reported as 2 µg/mL (≈ 4.41 µM), the “MIC Spn52” value [5] is reported as “<=0.5” and the “MIC, SA” value [12] is reported as “<=0.5”.
With CCc1[nH]c2nc(Oc3cncnc3)nc(Oc3cc(O)cc(C#N)c3)c2c1Br [701249-2] the MIC EC8 [3] was 4 µg/mL (≈ 8.83 µM), the “MIC Spn52” value [5] was “<=0.5” and the “MIC, SA” value [12] was “<=0.5”.
For CCc1[nH]c2nc(Sc3cnc4ccc[n+]([O-])c4c3)nc(N3CC4C(N)C4C3)c2c1Cl (stereo not drawn) [compound 701009], the MIC [1] was no more than 0.5 µg/mL, the MIC [2] was no more than 0.5 µg/mL and the MIC [3] was 2 µg/mL (≈ 4.41 µM). The MIC [4] was no more than 0.5 µg/mL, the MIC [5] was no more than 0.5 µg/mL and the MIC [6] was 2 µg/mL (≈ 4.41 µM). The MIC [7] was 4 µg/mL (≈ 8.81 µM), the MIC [8] was 4 µg/mL and the MIC [9] was 32 µg/mL (≈ 70.5 µM). For the same compound, the MIC [10] was no more than 0.5 µg/mL, the MIC [11] was 4 µg/mL (≈ 8.81 µM) and the MIC [12] was no more than 0.5 µg/mL.
